In test [1] the target is FAD-linked sulfhydryl oxidase ALR (Homo sapiens, UniProt P55789). Description: inhibitors of human ALR sulfhydryl oxidase, dose response, biochemical, H2O2 detection, luminescence, cherry-pick (AID 493248).
Another test concerns the target T1, Protein skinhead-1 (Caenorhabditis elegans, UniProt P34707).
T1 sequence (P34707 whole entry): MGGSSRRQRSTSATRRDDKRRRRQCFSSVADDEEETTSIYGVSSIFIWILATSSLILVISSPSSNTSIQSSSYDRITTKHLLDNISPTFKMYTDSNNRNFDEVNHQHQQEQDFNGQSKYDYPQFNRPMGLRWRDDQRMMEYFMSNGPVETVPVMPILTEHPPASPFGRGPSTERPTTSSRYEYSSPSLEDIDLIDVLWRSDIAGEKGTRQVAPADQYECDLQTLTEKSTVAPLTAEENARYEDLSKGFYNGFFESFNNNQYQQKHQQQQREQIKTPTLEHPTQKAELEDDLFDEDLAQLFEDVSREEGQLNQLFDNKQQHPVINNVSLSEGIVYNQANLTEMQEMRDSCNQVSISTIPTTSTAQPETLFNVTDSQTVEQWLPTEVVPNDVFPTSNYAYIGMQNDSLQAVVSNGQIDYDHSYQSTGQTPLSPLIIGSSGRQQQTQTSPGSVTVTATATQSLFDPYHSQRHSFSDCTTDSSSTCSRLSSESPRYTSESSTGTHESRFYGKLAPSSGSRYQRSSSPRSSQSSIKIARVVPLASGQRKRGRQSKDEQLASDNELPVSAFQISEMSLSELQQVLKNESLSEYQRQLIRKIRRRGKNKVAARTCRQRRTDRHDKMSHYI
The class given is functional.

The target in test [2] is T2, RNA-binding protein pos-1 (Caenorhabditis elegans, UniProt G5EF15).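 Further: purified POS-1 fused to maltose binding protein made in E. coli; potency of compounds blocking POS-1 binding to fluorescent RNA.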
T2 sequence (G5EF15 whole entry): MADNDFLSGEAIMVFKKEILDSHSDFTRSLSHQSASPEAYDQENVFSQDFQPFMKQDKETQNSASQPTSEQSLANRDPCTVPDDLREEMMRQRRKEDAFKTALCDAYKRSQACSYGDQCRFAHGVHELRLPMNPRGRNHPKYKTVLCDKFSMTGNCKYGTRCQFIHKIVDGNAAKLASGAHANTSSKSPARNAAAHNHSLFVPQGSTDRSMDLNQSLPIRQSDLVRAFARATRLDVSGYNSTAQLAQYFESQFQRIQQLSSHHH
Put plainly: inhibitors of POS-1/mex-3 RNA binding, dose response, biochemical, fluorescence polarization (AID 1964). (In fluorescence polarisation assays a small probe gives low polarisation when free and higher when bound to something large.)

A short description of test [3]: cells. The class given is functional, cell-based.
For test [4], the target named is T3, Zinc finger protein mex-5 (Caenorhabditis elegans, UniProt Q9XUB2).
T3 sequence (Q9XUB2 whole entry): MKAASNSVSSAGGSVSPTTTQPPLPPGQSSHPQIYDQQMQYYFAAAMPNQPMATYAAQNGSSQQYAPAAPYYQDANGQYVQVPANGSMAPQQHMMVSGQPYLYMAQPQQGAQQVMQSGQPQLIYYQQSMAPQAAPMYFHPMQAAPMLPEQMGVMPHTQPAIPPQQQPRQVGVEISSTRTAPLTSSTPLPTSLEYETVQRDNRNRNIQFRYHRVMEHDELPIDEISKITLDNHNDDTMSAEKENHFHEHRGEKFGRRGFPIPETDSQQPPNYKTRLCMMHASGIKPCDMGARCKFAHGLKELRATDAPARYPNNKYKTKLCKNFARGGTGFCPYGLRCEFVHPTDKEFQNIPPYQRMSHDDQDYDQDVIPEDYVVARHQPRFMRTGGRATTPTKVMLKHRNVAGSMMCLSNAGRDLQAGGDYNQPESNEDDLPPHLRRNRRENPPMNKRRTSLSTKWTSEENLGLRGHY
Description: MEX-5/TCR-2 RNA interaction inhibitors, dose response, biochemical, C. elegans, fluorescence polarization (AID 1960).

Test [5] is described as follows: cells. The class given is functional, cell-based. This is another data set of the same source.
Test [6] deals with T4, Microphthalmia-associated transcription factor (Homo sapiens, UniProt O75030).
T4 sequence (O75030 whole entry): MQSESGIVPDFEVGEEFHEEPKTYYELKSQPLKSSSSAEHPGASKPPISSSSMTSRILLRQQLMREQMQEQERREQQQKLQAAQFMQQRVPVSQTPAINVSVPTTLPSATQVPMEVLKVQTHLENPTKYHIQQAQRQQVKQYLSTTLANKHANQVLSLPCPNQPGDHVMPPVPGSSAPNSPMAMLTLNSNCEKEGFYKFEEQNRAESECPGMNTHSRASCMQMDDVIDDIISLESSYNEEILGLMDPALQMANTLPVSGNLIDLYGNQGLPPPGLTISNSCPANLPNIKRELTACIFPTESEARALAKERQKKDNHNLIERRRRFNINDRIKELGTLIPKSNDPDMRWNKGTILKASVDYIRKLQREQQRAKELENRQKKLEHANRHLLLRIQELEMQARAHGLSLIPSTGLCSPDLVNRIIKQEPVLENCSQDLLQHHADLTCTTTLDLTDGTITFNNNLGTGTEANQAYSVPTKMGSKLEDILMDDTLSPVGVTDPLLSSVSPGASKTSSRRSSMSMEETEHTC
Put plainly: TRPM1 promoter luciferase signal decrease, dose response, MITF inhibitor project, cell-based, SK-MEL-5, cherry-picked, set 3 (AID 493073).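 Further: SK-MEL-5 melanoma cells with luciferase driven by the MITF target TRPM1 promoter.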 The class given is functional.

In test [7] the test system is Streptococcus sp. 'group A'. Put plainly: growth inhibition of control SK(-) GAS strain, dose response, counter-screen for streptokinase expression inhibitor project, luminescence, kanamycin, BacTiterGlo, confirmation (AID 1900). The class given is functional, organism-based. A general note: Counterscreens check selectivity or assay interference.
The subject of the next test is Streptococcus. Put plainly: Group A Streptococcus viability loss, dose response, counter-screen for streptokinase expression inhibitor project, luminescence, BacTiterGlo (AID 1915).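 Further: potency for reduction of bacterial viability or growth.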 The class given is functional, organism-based.
A further test has as its system INS1. Description: beta cell apoptosis inhibitors, cytokine rescue, dose response, luminescence, retest (AID 449756).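 Further: cell death triggered by IL-1 beta plus TNF-alpha plus IFN-gamma mixture; protective hits raise ATP signal compared with cytokine alone wells.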 The class given is functional, cell-based. The conditions noted are these: Rattus norvegicus.

The structures appear in SMILES notation. Activity calls are given as the source filed them. For most assays here, no stated cut-off is given here; in the data, actives have a measured EC50 and inactives only a lower limit.

In general, AC50 refers to the midpoint of the concentration-response curve, whichever way the signal moves. Broadly, the IC50 is the midpoint of a concentration-inhibition curve. As a reminder, the EC50 is the concentration giving half of the maximal effect.

FAD-linked sulfhydryl oxidase ALR, sequence (P55789 whole entry): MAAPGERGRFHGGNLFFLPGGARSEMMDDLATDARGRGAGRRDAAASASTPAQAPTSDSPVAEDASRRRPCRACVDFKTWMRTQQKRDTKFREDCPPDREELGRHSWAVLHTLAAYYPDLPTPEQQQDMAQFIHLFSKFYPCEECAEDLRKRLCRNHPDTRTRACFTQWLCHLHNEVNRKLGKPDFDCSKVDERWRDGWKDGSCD

On to `Oc1ccc(Br)cc1-c1cc(-c2ccco2)[nH]n1`, for which, in test [1], the AC50 was 3.51 µM (active).

For `c1csc(-c2ccc3ccccc3n2)c1`, the IC50 at Protein skinhead-1 is 35.1 µM (active).

For `CC1(OC(=O)c2cccs2)C(=O)C=C2C=C(C3CC3)OC=C2C1=O` (stereo not given), the EC50 in [2] is 42.3 µM (active); in the test “cells [3]”, > 350 µM (not active); in test [4] it was 33 µM (active); in the test “cells [5]”, > 350 µM (not active).

On to `Cc1cc(NC(=O)C2CC(=O)N(c3cccc(C)c3C)C2)no1` (stereo not given), for which the EC50 in “cells [3]” and in the test “cells [5]” was > 350 µM (not active) each time.

`O=C(NCCCN1CCOCC1)c1cc(-c2ccccc2F)no1`: the EC50 in the test “cells [3]” is 113 µM (active); in “cells [5]”, > 350 µM (not active).

Regarding `Fc1ccc(-c2csc(-c3ccncc3)n2)cc1`, the IC50 at Protein skinhead-1 is 10.5 µM (active).

As for `Cc1c(C(=O)N2CCCCC2)c(S(=O)(=O)NCCc2ccc(Cl)cc2)c(C)n1C`, the concentration for a half-maximal effect (EC50) in the test “cells [3]” and in the test “cells [5]” was > 350 µM (not active) throughout.

As for `Cc1ccc(C)c(SCC(=O)OCC(=O)N2CC(C)OC(C)C2)c1` (stereo not given), the EC50 in the test “cells [3]” and in “cells [5]” was > 350 µM (not active) throughout.

Take `O=[N+]([O-])c1ccc(CSC2=NCCN2)cc1`: the AC50 in [1] was 0.04 µM (active).

Consider `COc1ccc(C(=O)Nc2cccc(OC(=O)c3ccc(C)c(C)c3)c2)cc1`, for which, at Protein skinhead-1, the IC50 is > 100 µM (inactive).

As to `Cc1cc(Nc2ccccc2)cc(=O)n1C`, the EC50 in the test “cells [3]” and in the test “cells [5]” was > 350 µM (not active) throughout.

For the molecule `Clc1ccc(SCc2cc(-c3ccc(Cl)cc3)on2)cc1`, the IC50 at Protein skinhead-1 is > 100 µM (inactive).

On to `Fc1ccc(CSc2nnc(-c3cnccn3)n2Cc2ccco2)cc1`, for which the AC50 in [1] is 3.85 µM (active).

On to `CCC(C)C(=O)N1CCc2cc(-c3csc(N)n3)ccc21` (stereo not given), for which, in test [1], the AC50 is 0.3 µM (active).

Regarding `CCc1nc2oc3ccccc3c(=O)c2c(=O)n1-c1ccccc1`, the IC50 on Protein skinhead-1 was > 100 µM (inactive).

With `O=C(O)c1cccc(NC(=O)c2cccc(NC(=O)C3CCCO3)c2)c1` (stereo not given), the AC50 in test [6] is 21.2 µM (active).

Turning to `CCc1ccc(C(=O)Nc2ccc3nc(C)ccc3c2)cc1`, at Protein skinhead-1, the 50% inhibitory concentration (IC50) was 10.1 µM (active).

Regarding `O=C(NCc1ccc(Cl)cc1)C1CCN(c2nnc(N3CCCC3=O)s2)CC1`, at Protein skinhead-1, the IC50 was > 100 µM (inactive).

In the case of `O=C(O)C(Oc1ccc2ccccc2c1)c1ccccc1` (stereo not given), the IC50 on Protein skinhead-1 was > 100 µM (inactive).

For `Cc1cc(-c2nnc(S)n2/N=C/C(Cl)=C/c2ccccc2)[nH]n1`, the AC50 in test [1] is 0.109 µM (active).

For the molecule `Cc1cccc(/C=N/NC(=O)c2ccc3c(c2)OCCO3)c1O`, the concentration giving a half-maximal response (EC50) in test [7] was 3.05 µM (active); in the test “cells [3]” it was 66.1 µM (active); in “cells [5]”, 6.39 µM (active); in the test with Streptococcus, 6.82 µM (active). The AC50 with INS1 was 1.8 µM (active).

Consider `C/C(=N\NC(=O)CCCNc1cccc(C)c1)c1ccncc1`, for which the AC50 in test [1] was 2.59 µM (active).

As for `C/C(=N\Nc1ccc(Cl)cc1)c1ccccn1`, the AC50 in test [1] was 1.03 µM (active).

The values are drawn from ChEMBL document CHEMBL1201862, “PubChem BioAssay data set” (2004).
